US20050009730A1, “Treatment of cns disorders using cns target modulators” (priority 2001, published 2005)

Columns and labels:
HERG = HERG (Homo sapiens, UniProt Q12809)
[1] = biological target: T1, Muscarinic, M1 (Human Recombinant) (Homo sapiens, UniProt P11229); test: Receptor selectivity binding assay comparison; conditions: 1.0E−6
T1 sequence (P11229 1-460): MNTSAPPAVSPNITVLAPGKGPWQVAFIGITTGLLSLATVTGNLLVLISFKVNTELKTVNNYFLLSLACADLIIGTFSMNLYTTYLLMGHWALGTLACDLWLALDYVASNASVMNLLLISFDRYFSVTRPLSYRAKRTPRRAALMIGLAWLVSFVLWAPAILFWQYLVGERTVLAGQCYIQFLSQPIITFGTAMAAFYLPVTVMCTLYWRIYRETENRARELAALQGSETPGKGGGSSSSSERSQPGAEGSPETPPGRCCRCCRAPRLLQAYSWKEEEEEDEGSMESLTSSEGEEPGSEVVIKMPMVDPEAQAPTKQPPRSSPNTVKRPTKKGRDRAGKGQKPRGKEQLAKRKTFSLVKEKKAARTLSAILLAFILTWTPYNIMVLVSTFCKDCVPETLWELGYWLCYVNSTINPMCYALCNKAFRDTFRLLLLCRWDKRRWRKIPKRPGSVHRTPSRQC

Histamine, H2 = Histamine, H2 (Homo sapiens, UniProt P25021); test: Receptor selectivity binding assay comparison; conditions: 1.0E−6
[2] = biological target: Norepinephrine Transporter (Homo sapiens, UniProt P23975); test: Receptor selectivity binding assay comparison; conditions: 1.0E−6
Histamine, H1 = Histamine, H1 (Homo sapiens, UniProt P35367); test: H1 binding assay by displacement of known standards; conditions: read-out: Receptor Binding Data (Ki nM) H1
Protocol: The following binding assays were performed on the Series 11 compounds described above by displacement of known standards from the H1, M1, M2, and M3 receptors, wherein H1 is a histamine receptor, and M1, M2, and M3 are muscarinic receptors.
The binding studies against the histamine receptor, H1, indicate binding affinity, and therefore the results of the binding assays are an indication of the activity of the compound. […]
The following binding assays were performed on additional compounds described above by displacement of known standards from the H1, M1, M2, and M3 receptors, wherein H1 is a histamine receptor, and M1, M2, and M3 are muscarinic receptors.
The binding assays for H1 was the same as described in Example 10 and the M1, M2, and M3 binding assays are the same as those described in Example 10 for human recombinant expressed cells.

Male Wistar rats = test: Sleep-wakefulness, locomotor activity and body temperature monitoring (SCORE-2000), treatment at CT-18; conditions: 30 mg/kg PO, at CT-18

Sequence of Histamine, H1 (P35367 whole entry): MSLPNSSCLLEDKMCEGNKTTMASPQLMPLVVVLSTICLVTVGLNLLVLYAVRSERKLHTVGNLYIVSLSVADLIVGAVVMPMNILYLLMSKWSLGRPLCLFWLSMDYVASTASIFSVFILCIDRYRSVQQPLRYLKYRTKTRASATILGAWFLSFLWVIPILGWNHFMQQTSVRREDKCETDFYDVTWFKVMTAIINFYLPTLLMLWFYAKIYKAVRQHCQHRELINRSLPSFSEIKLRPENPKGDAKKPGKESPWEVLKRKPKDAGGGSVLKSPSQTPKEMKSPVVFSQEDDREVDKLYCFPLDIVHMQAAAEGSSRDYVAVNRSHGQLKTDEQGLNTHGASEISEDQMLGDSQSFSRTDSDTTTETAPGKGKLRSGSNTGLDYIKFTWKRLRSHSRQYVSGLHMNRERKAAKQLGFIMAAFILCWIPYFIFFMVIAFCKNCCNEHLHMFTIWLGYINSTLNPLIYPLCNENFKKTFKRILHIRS
Sequence of HERG (Q12809 whole entry): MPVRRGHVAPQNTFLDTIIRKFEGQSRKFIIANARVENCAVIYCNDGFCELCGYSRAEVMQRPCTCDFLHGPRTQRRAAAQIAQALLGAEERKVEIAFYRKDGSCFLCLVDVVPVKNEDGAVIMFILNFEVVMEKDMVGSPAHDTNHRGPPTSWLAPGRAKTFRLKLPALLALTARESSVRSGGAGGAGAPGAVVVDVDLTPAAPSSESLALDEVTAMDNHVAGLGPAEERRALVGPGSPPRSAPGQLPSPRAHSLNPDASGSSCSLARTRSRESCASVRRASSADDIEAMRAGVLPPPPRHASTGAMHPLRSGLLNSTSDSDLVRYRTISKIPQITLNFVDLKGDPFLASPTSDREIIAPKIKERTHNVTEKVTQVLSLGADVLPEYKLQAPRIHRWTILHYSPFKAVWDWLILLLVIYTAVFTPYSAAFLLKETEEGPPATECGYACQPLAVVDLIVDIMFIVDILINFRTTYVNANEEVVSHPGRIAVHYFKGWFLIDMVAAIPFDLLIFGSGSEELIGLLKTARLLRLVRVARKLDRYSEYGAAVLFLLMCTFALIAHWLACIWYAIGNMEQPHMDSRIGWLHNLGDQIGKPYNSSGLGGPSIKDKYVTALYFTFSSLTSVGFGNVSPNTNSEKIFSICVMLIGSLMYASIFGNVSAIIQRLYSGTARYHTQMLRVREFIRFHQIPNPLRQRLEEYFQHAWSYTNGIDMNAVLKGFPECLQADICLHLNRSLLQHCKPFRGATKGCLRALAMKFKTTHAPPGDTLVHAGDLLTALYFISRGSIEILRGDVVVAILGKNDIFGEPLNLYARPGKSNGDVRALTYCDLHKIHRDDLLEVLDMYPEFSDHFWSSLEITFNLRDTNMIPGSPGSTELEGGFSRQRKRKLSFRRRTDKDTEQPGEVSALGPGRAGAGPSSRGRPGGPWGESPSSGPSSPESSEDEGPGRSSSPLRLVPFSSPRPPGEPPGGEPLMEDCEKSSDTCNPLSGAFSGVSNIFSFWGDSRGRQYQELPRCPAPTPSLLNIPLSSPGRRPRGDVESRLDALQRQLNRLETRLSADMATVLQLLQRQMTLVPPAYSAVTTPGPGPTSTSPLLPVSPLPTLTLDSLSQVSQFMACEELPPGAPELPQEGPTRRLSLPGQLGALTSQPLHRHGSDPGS
Sequence of Histamine, H2 (P25021 whole entry): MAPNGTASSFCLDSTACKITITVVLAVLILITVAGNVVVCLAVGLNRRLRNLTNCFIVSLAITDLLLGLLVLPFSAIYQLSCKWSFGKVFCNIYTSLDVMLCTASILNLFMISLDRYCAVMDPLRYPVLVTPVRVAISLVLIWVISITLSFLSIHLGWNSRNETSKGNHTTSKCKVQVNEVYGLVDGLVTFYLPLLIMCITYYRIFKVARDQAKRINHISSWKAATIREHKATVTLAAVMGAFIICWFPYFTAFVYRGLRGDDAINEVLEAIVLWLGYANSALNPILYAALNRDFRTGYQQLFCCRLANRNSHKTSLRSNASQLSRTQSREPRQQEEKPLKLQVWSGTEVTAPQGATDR
Sequence of Norepinephrine Transporter (P23975 whole entry, species assumed): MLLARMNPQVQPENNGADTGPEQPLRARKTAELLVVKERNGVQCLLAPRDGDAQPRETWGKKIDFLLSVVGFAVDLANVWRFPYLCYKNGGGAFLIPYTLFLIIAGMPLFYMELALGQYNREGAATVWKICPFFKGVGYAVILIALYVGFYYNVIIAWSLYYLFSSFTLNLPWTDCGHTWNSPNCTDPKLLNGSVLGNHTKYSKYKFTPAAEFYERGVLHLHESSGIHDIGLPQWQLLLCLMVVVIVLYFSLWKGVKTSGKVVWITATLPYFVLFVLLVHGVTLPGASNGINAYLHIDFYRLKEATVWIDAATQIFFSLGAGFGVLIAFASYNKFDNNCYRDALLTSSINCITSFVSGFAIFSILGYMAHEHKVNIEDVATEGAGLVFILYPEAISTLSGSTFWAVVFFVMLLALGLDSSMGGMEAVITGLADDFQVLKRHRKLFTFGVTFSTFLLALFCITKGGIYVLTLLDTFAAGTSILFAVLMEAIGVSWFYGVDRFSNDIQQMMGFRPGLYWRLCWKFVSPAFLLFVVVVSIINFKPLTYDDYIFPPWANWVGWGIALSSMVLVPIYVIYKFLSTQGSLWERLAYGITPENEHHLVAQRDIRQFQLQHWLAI

`O=C(O)CCN1CCC(=C2c3ccccc3COc3ccccc32)CC1` [Series 8a] was tested, and the “Percent Inhibition, HERG” value (HERG) was 4%, the “Percent Inhibition, Muscarinic, M1 (Human Recombinant)” value [1] was 3.3% and the “Percent Inhibition, Histamine, H2” value (Histamine, H2) was 33.4%. The “Percent Inhibition, Norepinephrine Transporter” value [2] was −3.9%, the Ki (Histamine, H1) was 62.5 nM and the “Average Bout-Length” value (Male Wistar rats) was 12.2 min. The “Maximum Bout Length” value (Male Wistar rats) was 28.9 min, the “NREM Accum.” value (Male Wistar rats) was 65.8 min and the “NREM Peak” value (Male Wistar rats) was 75.5 %/hr. For the same compound, the Onset (Male Wistar rats) was 65 min.
